Assay results taken from patent US5747235A, “Silver halide light sensitive emulsion layer having enhanced photographic sensitivity” (Eastman Kodak Company, priority 1996, dated 1998).
Like-named read-outs stand apart in the source and are kept apart here.

Experiments:
[1] = known acceptors used in flash photolysis; cited from earlier work
[2] = Example 15: photographic sensitivity and fog, color format, blue sensitized emulsion T-2; conditions: for Photographic Sensitivity SWR2B: control=100
Procedure: (§1) The AgBrI tabular silver halide emulsion T-2 from Example 3 was optimally chemically and spectrally sensitized by adding NaSCN, 1.07 mmole of the blue sensitizing dye D-I per mole of silver, Na3 Au(S2 O3)2 ·2H2 O, Na2 S2 O3 ·5H2 O, and a benzothiazolium finish modifier and then subjecting the emulsion to a heat cycle to 65° C. The hydroxybenzene, 2,4-disulfocatechcol (HB3) at a concentration of 13×10^-3 mole/mole Ag was added to the emulsion melt before the start of the chemical sensitization procedure. This chemically sensitized emulsion was then used to prepare the experimental coating variations given in Table X. For all the variations in Table X, the antifoggant and stabilizer tetraazaindene (TAI) was added to the emulsion melt in an amount of 1.75 g/mole Ag before any further addenda. The fragmentable two-electron donors S-3, S-9, S-6, or S-8 were then added to the emulsion melt.
(§2) The melts were prepared for coating by adding additional water, deionized gelatin and coating surfactants. Coatings were prepared by combining the emulsion melts with a melt containing deionized gelatin and an aqueous dispersion of the cyan-forming color coupler CC-1 and coating the resulting mixture on acetate support. The final coatings contained Ag at 0.81 g/m^2, coupler at 1.61 g/m^2, and gelatin at 3.23 g/m^2. The coatings were overcoated with a protective layer containing gelatin at 1.08 g/m^2, coating surfactants, and a bisvinylsulfonylmethyl ether as a gelatin hardening agent. The structure of the color coupler CC-1 is given below: [drawing 120]
(§3) For photographic evaluation, each of the coating strips was exposed for 0.01 sec to a 3000K color temperature tungsten lamp filtered to give an effective color temperature of 5500K and further filtered through a Kodak Wratten filter number 2B, and a step wedge ranging in density from 0 to 4 density units in 0.20 density steps. This exposure gives light absorbed mainly by the blue sensitizing dye. The exposed film strips were developed for 31/4 minutes in Kodak C-41 color developer. SWR2B, relative sensitivity for this filtered exposure, was evaluated at a cyan density of 0.15 units above fog.
(§4) The AgBrl tabular emulsion T-2 as described in Example 3 was sensitized as described in Example 10 except that the hydroxybenzene HB3 was added at the completion of the chemical sensitization procedure. For all the variations in Table XV the antifoggant and stabilizer tetraaazindene (TAI) was added to the emulsion melt in an amount of 1.75 g/mole Ag before any further addenda. The fragmentable electron donor compounds S-19, PMT-3, and PMT-4 were then added to the emulsion melt. The melts were then coated and tested as described in Example 10.

[3] = cited from earlier work
[4] = Example 16: photographic sensitivity and fog, color format, blue sensitized emulsion T-2; conditions: control=100
[5] = as above
Procedure: as §1, §2, §3
as §4, with “XVI,” for “XV”, “tetraazaindene (TAI),” for “tetraaazindene (TAI)”, “two-electron” for “electron”, “TU-2” for “S-19, PMT-3,”, “TU-3” for “PMT-4”

O=C1C(Cl)=C(Cl)C(=O)C(Cl)=C1Cl [2,3,5,6-tetrachlorobenzoquinone]
reduction potential (Ered) [1]: 0.00 V

O=C1C=C(Cl)C(=O)C=C1Cl [2,5-dichlorobenzoquinone]
reduction potential (Ered) [1]: -0.18 V

CC(C(=O)O)N(CC(=O)O)c1ccc(S(=O)(=O)N2CCSCC2)cc1 (stereo not shown) [Compound S-19]
Fog ([2]; 4.4 x10^-6 mol/mol Ag): 0.06 | Photographic Sensitivity SWR2B ([2]; 4.4 x10^-6 mol/mol Ag): 115 | Fog ([2]; 8.8 x10^-6 mol/mol Ag): 0.08 | Photographic Sensitivity SWR2B ([2]; 8.8 x10^-6 mol/mol Ag): 112

N#Cc1c2ccccc2c(C#N)c2ccccc12 [DCA, 9,10-dicyanoanthracene]
reduction potential (Ered) [1]: -0.91 V

CC(C(=O)O)N(CCC(=O)Nc1cccc(-n2nnnc2S)c1)c1ccc(C=O)cc1 (stereo not shown) [PMT-3]
Fog ([2]; 0.045 x10^-6 mol/mol Ag): 0.07 | Photographic Sensitivity SWR2B ([2]; 0.045 x10^-6 mol/mol Ag): 151 | Fog ([2]; 0.14 x10^-6 mol/mol Ag): 0.08 | Photographic Sensitivity SWR2B ([2]; 0.14 x10^-6 mol/mol Ag): 151 | Fog ([2]; 0.45 x10^-6 mol/mol Ag): 0.07 | Photographic Sensitivity SWR2B ([2]; 0.45 x10^-6 mol/mol Ag): 141

CC(C(=O)O)N(CC(=O)O)c1ccc(S(=O)(=O)Nc2cccc(-n3nnnc3S)c2)cc1 (stereo not shown) [PMT-4]
Fog ([2]; 0.14 x10^-6 mol/mol Ag): 0.06 | Photographic Sensitivity SWR2B ([2]; 0.14 x10^-6 mol/mol Ag): 115 | Fog ([2]; 0.45 x10^-6 mol/mol Ag): 0.07 | Photographic Sensitivity SWR2B ([2]; 0.45 x10^-6 mol/mol Ag): 120

[Cl][Sn][Cl] [SnCl2]
oxidation potential ([3]; SnCl2, CRC Handbook): ~ -0.10 V

N#Cc1ccc2c(C#N)c3cc(C#N)ccc3c(C#N)c2c1 [TCA, tetracyanoanthracene]
reduction potential (Ered) [1]: -0.44 V

CC(C(=O)O)N(CCC(=O)N(C)CCN(C)C(=S)N(C)C)c1ccccc1 (stereo not shown) [TU-2]
Photographic Sensitivity SWR3B ([4]; 0.45 x10^-6 mol/molAg): 118 | Photographic Sensitivity SWR3B ([4]; 1.4 x10^-6 mol/molAg): 135 | Photographic Sensitivity SWR3B ([4]; 4.5 x10^-6 mol/molAg): 159 | Fog ([5]; 0.45 x10^-6 mol/molAg): 0.08 | Fog ([5]; 1.4 x10^-6 mol/molAg): 0.09 | Fog ([5]; 4.5 x10^-6 mol/molAg): 0.11

CC(C(=O)O)N(CCC(=O)N(C)CCN(C)C(=S)N(C)C)c1ccc(C=O)cc1 (stereo not shown) [TU-3]
Photographic Sensitivity SWR3B ([4]; 14 x10^-6 mol/molAg): 145 | Photographic Sensitivity SWR3B ([4]; 45 x10^-6 mol/molAg): 155 | Photographic Sensitivity SWR3B ([4]; 140 x10^-6 mol/molAg): 166 | Fog ([5]; 14 x10^-6 mol/molAg): 0.09 | Fog ([5]; 45 x10^-6 mol/molAg): 0.09 | Fog ([5]; 140 x10^-6 mol/molAg): 0.10

N#Cc1ccc2c(C#N)c3ccccc3c(C#N)c2c1 [TriCA, 2,9,10-tricyanoanthracene]
reduction potential (Ered) [1]: -0.67 V

B [borohydride]
oxidation potential ([3]; literature): -0.48 V vs SCE

O=C1C=CC(=O)C(Cl)=C1 [chlorobenzoquinone]
reduction potential (Ered) [1]: -0.34 V
